This is an account of results in PMC9404985, “Development of Dicationic Bisguanidine-Arylfuran Derivatives as Potent Agents against Gram-Negative Bacteria” (Antibiotics, 2022).

A value given as a limit tells only on which side of the number the result lay.

The test system of data set [1] is Acinetobacter baumannii CCUG # 57250. Description: MIC of established antibiotics, micro-broth dilution. Particulars: CCUG57250, read-out: MIC Acinetobacter baumannii CCUG 57250.
In data set [2] the test system is Escherichia coli CCUG # 67180. The data set is described as above. Particulars: CCUG67180, read-out: MIC Escherichia coli CCUG 67180.
The subject of data set [3] is Enterobacter cloacae CCUG # 6323T. The description is as above. To be noted: read-out: MIC Enterobacter cloacae CCUG 6323T.
The subject of data set [4] is Enterobacter hormaechei CCUG # 58962. The data set is described as above. Particulars: CCUG58962, read-out: MIC Enterobacter hormaechei CCUG 58962.
Data set [5] concerns Pseudomonas aeruginosa CCUG # 17619. The description is as above. Particulars: CCUG17619, read-out: MIC Pseudomonas aeruginosa CCUG 17619.
Data set [6] concerns Klebsiella pneumoniae CCUG # 58547. Described as above. To be noted: CCUG58547, read-out: MIC Klebsiella pneumoniae CCUG 58547.
Data set [7] has as its system Klebsiella pneumoniae CCUG # 225T. Described as above. Particulars: read-out: MIC Klebsiella pneumoniae CCUG 225T.
Data set [8] concerns Pseudomonas aeruginosa CCUG # 59347. The data set is described as above. Particulars: CCUG59347, read-out: MIC Pseudomonas aeruginosa CCUG 59347.
Data set [9] relates to Acinetobacter baumannii CCUG # 57035. Described as above. To be noted: CCUG57035, read-out: MIC Acinetobacter baumannii CCUG 57035.
The subject of data set [10] is Escherichia coli CCUG # 17620. The data set is described as above. To be noted: CCUG17620, read-out: MIC Escherichia coli CCUG 17620.
A short description of data set [11]: Cytotoxicity assay (PrestoBlue) HepG2. It is filed as cell-based. Particulars: human, HepG2 cells (hepatoma cell line), 24 h incubation. On the procedure:
(§1) The cytotoxicity levels of all compounds were evaluated against human Michigan Cancer Foundation-7 (MCF-7) and Hepatoma G2 cell line (HepG2) cell lines. MCF-7 is an extensively characterized breast cancer cell line isolated in 1970 [41], while HepG2 cells were derived from a hepatoma in 1975 [42]. Both cell lines grow robustly during in vitro culture and have been widely used for cytotoxicity testing. Cells of hepatic origin, such as HepG2, are of particular relevance for toxicity studies as many drugs accumulate in the liver during metabolic conversion. Cells were grown in Dulbecco’s Modified Eagle Medium supplemented with 10% fetal calf serum and kept in exponential growth, as previously reported. Before the assay, cells were reseeded into 96-well microtiter plates at a density allowing continued exponential growth and let to settle for 24 h. The compounds were added from a stock solution in DMSO, for a final concentration of 0.3% v/v of the solvent in the culture medium. After 24 h of incubation in presence of the compound, cell viability was assayed using PrestoBlue Cell Viability Reagent (resazurin-based solution, ThermoFisher, Waltham, MA, USA) according to the manufacturer’s instructions. […] Each assay contained a DMSO control at the equivalent starting concentration, positive control (uninhibited cell growth) and negative control (cell medium only). Survival was expressed as percentage of the solvent-only control. […] The Selectivity Index (SI) for each compound and bacterial strain was calculated as the ratio between the mean of the EC50 values for the two human cell lines and the EC50 for the bacterial strain in question ((EC50 MCF-7 + EC50 HepG2)/2)/EC50 bacterial strain).

The subject of data set [12] is P. putida (NBRC/ATCC #100650). Description: Antibacterial resazurin assay, laboratory strain. To be noted: for EC50 / EC90: Pseudomonas putida, ATCC100650, 18 h; for EC50: read-out: Ppu EC50, laboratory strain, 18 h, 37 °C, AlamarBlue; for EC90: read-out: Ppu EC90; for Selectivity index P. putida: mean of MCF-7 and HepG2 EC50 over bacterial EC50, laboratory strain.
In data set [13] the test system is E. coli MG1655 (CGSC #6300). Briefly: Antibacterial resazurin assay, laboratory strain. Particulars: for EC50 / EC90: Escherichia coli, MG1655, 18 h; for EC50: read-out: Eco EC50; for EC90: read-out: Eco EC90; for Selectivity index E. coli: mean of MCF-7 and HepG2 EC50 over bacterial EC50, laboratory strain.
Data set [14] has as its system B. subtilis (NBRC/ATCC #111470). Briefly: Antibacterial resazurin assay, laboratory strain. Particulars: for EC50 / EC90: Bacillus subtilis, ATCC111470, 18 h; for EC50: read-out: Bsu EC50; for EC90: read-out: Bsu EC90; for Selectivity index B. subtilis: mean of MCF-7 and HepG2 EC50 over bacterial EC50, laboratory strain.
For data set [15], the system named is P. caledonica (NBRC/ATCC #102488). Briefly: Antibacterial resazurin assay, laboratory strain. Particulars: for EC50 / EC90: Paraburkholderia caledonica, ATCC102488, 18 h; for EC50: read-out: Pcal EC50; for EC90: read-out: Pcal EC90; for Selectivity index P. caledonica: mean of MCF-7 and HepG2 EC50 over bacterial EC50, laboratory strain.
The nature of data set [16]: Cytotoxicity assay (PrestoBlue) MCF-7. To be noted: human, MCF-7 cells (breast cancer cell line), 24 h incubation. It is filed as cell-based. On the procedure:
as §1

The test system of data set [17] is P. carotovorum (NBRC/ATCC #3380). Briefly: Antibacterial resazurin assay, laboratory strain. To be noted: for EC50 / EC90: Pectobacterium carotovorum, ATCC3380, 18 h; for EC50: read-out: Pcar EC50, laboratory strain, 18 h, 37 °C, AlamarBlue; for EC90: read-out: Pcar EC90; for Selectivity index P. carotovorum: mean of MCF-7 and HepG2 EC50 over bacterial EC50, laboratory strain.

In the case of `CC1(C)S[C@@H]2[C@H](NC(=O)[C@H](N)c3ccc(O)cc3)C(=O)N2[C@H]1C(=O)O` [Amoxicillin], the MIC in [1] was found to be 175 µM; in data set [2] it was 350 µM; in [3] it was 350 µM; in [4] it was 350 µM; in data set [5] it was 350 µM; in [6], 350 µM. The MIC is 350 µM in data set [7], 350 µM in [8], 175 µM in data set [9] and 11 to 44 µM in [10].

Take `O=C(O)c1cn(C2CC2)c2cc(N3CCNCC3)c(F)cc2c1=O` [Ciprofloxacin]: the MIC in data set [1] is 200 µM; in data set [2], 190 µM; in data set [4], 0.1 µM; in [5], 1.5 to 3 µM; in [6], 190 µM; in data set [7], 0.18 µM. Further, the MIC is 100 µM in [8], 200 µM in data set [9] and 0.025 µM in data set [10].

As to `Cc1cc(Nc2c(N)c(=O)c2=O)ccc1-c1ccc(-c2ccc(Nc3c(N)c(=O)c3=O)cc2C)o1` [Compound 13, 2,5-Bis(2-methyl-4-((3,4-dioxo-2-(amino)cyclobut-1-en-1-yl)amino)phenyl)furan], the figures for the EC50 at 24 h in [11] and in [16] were 137 µM and above 1000 µM, respectively. For the same molecule, the EC50 in [12], in data set [13], in data set [14], in data set [15] and in data set [17] was above 300 µM throughout. For the same molecule, the EC90 in [12], in data set [13], in data set [14], in data set [15] and in [17] was above 300 µM throughout.

For `Nc1c(Nc2ccc(-c3ccc(-c4ccc(Nc5c(N)c(=O)c5=O)cc4C(F)(F)F)o3)c(C(F)(F)F)c2)c(=O)c1=O` [Compound 14, 2,5-Bis(2-trifluoromethyl-4-((3,4-dioxo-2-(amino)cyclobut-1-en-1-yl)amino)phenyl)furan], the EC50 at 24 h was 185 µM in data set [11] and 173 µM in data set [16]. The EC50 in data set [12] was above 300 µM; in [13], above 300 µM; in [14] it was above 300 µM; in [15], 90.4 µM; in data set [17], above 300 µM. Also, the EC90 was above 300 µM in [12]; above 300 µM in [13]; above 300 µM in [14]; 305 µM in data set [15]; above 300 µM in [17]. Also, the “Selectivity index P. caledonica” value in [15] was 2.0.

As for `N=C(N)Nc1ccc2c(c1)CCN2C(=O)c1ccc(-c2ccc(NC(=N)N)cc2C(F)(F)F)o1` [Compound 18, (5-(2-trifluoromethy-4-guanidinophenyl)furan-2-yl)(5-guanidinoindolin-1-yl)methanone], a half-maximal effect in [11] (EC50 at 24 h) was put at 508 µM. Besides, in [12], the EC50 stood at 10.1 µM, the EC90 came to 22.2 µM and the “Selectivity index P. putida” value turned out to be 31.3. In addition, in data set [13], the EC50 came out at 42.3 µM, the EC90 came to 58.3 µM and the “Selectivity index E. coli” value turned out to be 7.5. Moreover, in data set [14], the EC50 came to 9.6 µM, the EC90 was determined as 13.6 µM and the “Selectivity index B. subtilis” value is recorded as 32.9. Moreover, in [15], the EC50 stood at 12.6 µM, the EC90 came out at 176 µM and the “Selectivity index P. caledonica” value was 25.1. Further, the EC50 at 24 h in data set [16] was 123 µM. Also, in data set [17], the EC50 worked out at 94.6 µM, the EC90 stood at 120 µM and the “Selectivity index P. carotovorum” value is recorded as 3.3.

`N=C(N)Nc1ccc2c(c1)CCN2C(=O)c1ccc(-c2ccccc2Cl)o1` [Compound 19, (5-(2-chlorophenyl)furan-2-yl)(5-guanidinoindolin-1-yl)methanone] showed an EC50 at 24 h in data set [11] of 24.8 µM. In data set [12], the EC50 amounted to 75 µM, the EC90 amounted to 84.9 µM and the “Selectivity index P. putida” value is 0.3. Besides, in data set [13], the EC50 worked out at 0.5 µM, the EC90 was 2.5 µM and the “Selectivity index E. coli” value came to 51.2. For the same molecule, in data set [14], the EC50 was found to be 14.5 µM, the EC90 turned out to be 25.9 µM and the “Selectivity index B. subtilis” value was 1.8. For the same molecule, in data set [15], the EC50 was 96.3 µM, the 90% effect concentration (EC90) was 287 µM and the “Selectivity index P. caledonica” value is 0.3. Further, a half-maximal effect in data set [16] (EC50 at 24 h) was put at 26.4 µM. Also, in data set [17], the EC50 came out at 87.1 µM, the EC90 was found to be 130 µM and the “Selectivity index P. carotovorum” value was 0.3.

For `N=C(N)Nc1ccc(-c2ccc(C(=O)N3CCc4ccccc43)o2)c(Cl)c1` [Compound 20, (5-(2-chloro-4-guanidinophenyl)furan-2-yl)(indolin-1-yl)methanone], the EC50 at 24 h came out at 28.5 µM in [11] and 37.8 µM in data set [16]. Further, the EC50 in [12] was above 300 µM; in data set [13] it was 61.7 µM; in data set [14], 24.5 µM; in data set [15], 129 µM; in data set [17], 159 µM. The EC90 in [12] is above 300 µM; in [13], 106 µM; in data set [14], 38.4 µM; in data set [15], above 300 µM; in data set [17], 187 µM. For the same molecule, the “Selectivity index E. coli” value in [13] came to 0.5. Moreover, the “Selectivity index B. subtilis” value in data set [14] is recorded as 1.4. Moreover, the “Selectivity index P. caledonica” value in data set [15] stood at 0.3. In addition, the “Selectivity index P. carotovorum” value in [17] was determined as 0.2.

In the case of `C[C@@H](O)[C@H]1C(=O)N2C(C(=O)O)=C(S[C@@H]3CN[C@H](C(=O)N(C)C)C3)[C@H](C)[C@H]12` [Meropenem], the MIC in data set [1] is 40 µM; in [2] it was 10 to 20 µM; in data set [3], 0.6 to 1.2 µM; in data set [4], 0.3 µM; in [5], 2.6 to 5.2 µM; in [6], above 80 µM. For the same molecule, the MIC in [7] is 0.16 to 0.32 µM; in [8], 335 µM; in [9], 335 µM; in data set [10], 0.16 µM.
